In the assay the target is T1, PARP (Mus musculus, UniProt P11103).
T1 construct: PARP Activity in Cultured Macrophages, Using a Whole-Cell Based Assay; host or cells: murine RAW macrophages
Put plainly: PARP activity in cultured macrophages, whole-cell based assay (3H-NAD+ incorporation after hydrogen peroxide). Particulars: murine RAW macrophages; compound 1 hour prior to hydrogen peroxide (0.5 mM) for 25 minutes; PARP activity by 3H-NAD+. How it is done:
Effect of Indenoisoquinolinone Analogs on PARP Activity in Cultured Macrophages, Using a Whole-Cell Based Assay
The murine RAW macrophages (ATCC, American Type Culture Collection, Manassas, Va.) were grown in RPMI […] (Invitrogen Life Technologies; Carlsbad, Calif.) medium supplemented with 10% heat-inactivated FBS, 2 mM L-glutamine, and 100 U/ml of penicillin and streptomycin. Cells, between passages 5 and 15, were seeded at a density of 250,000 cells/well in 12 well plates and allowed to grow 48 hours before use. Growth medium was changed on the day of use. Cells were treated with an Indenoisoquinolinone Analog diluted in a growth medium supplemented with 10% fetal bovine serum (FBS) for 1 hour prior to the addition of hydrogen peroxide (0.5 mM) for a further 25 minutes. For the measurement of PARP activity, media was removed and replaced with 0.5 ml of the assay buffer (56 mM HEPES-pH 7.5, 28 mM KCl, 28 mM NaCl, 2 mM MgCl2, 0.01% digitonin, and 0.5 μCi/m1 of ^3H-NAD^+) for 20 minutes. After aspirating the assay buffer, cells were lysed and transferred to eppendorf tubes containing 250 μl of 50% ice-cold trichloroacetic acid (TCA), which were then placed at 4° C. for 4 hours. Samples were centrifuged at 10,000 g for 10 minutes and supernatant removed. The pellets were washed twice with 500 μl of ice-cold 5% w/v TCA. The pellets were then solubilized in 250 μl of NaOH (0.1 M) containing 2% SDS overnight at 37° C. and the PARP activity was then determined by measuring the radioactivity incorporated using a Wallac scintillation counter. The solubilized protein (250 μl) was mixed with 5 ml of scintillation fluid (ScintiSafe Plus, Fisher Scientific) before being counted for 3 minutes. EC50 values were determined from a dose-response curve.

Structures can show the parent of a compound that is named as a salt.

T1 sequence (P11103 whole entry): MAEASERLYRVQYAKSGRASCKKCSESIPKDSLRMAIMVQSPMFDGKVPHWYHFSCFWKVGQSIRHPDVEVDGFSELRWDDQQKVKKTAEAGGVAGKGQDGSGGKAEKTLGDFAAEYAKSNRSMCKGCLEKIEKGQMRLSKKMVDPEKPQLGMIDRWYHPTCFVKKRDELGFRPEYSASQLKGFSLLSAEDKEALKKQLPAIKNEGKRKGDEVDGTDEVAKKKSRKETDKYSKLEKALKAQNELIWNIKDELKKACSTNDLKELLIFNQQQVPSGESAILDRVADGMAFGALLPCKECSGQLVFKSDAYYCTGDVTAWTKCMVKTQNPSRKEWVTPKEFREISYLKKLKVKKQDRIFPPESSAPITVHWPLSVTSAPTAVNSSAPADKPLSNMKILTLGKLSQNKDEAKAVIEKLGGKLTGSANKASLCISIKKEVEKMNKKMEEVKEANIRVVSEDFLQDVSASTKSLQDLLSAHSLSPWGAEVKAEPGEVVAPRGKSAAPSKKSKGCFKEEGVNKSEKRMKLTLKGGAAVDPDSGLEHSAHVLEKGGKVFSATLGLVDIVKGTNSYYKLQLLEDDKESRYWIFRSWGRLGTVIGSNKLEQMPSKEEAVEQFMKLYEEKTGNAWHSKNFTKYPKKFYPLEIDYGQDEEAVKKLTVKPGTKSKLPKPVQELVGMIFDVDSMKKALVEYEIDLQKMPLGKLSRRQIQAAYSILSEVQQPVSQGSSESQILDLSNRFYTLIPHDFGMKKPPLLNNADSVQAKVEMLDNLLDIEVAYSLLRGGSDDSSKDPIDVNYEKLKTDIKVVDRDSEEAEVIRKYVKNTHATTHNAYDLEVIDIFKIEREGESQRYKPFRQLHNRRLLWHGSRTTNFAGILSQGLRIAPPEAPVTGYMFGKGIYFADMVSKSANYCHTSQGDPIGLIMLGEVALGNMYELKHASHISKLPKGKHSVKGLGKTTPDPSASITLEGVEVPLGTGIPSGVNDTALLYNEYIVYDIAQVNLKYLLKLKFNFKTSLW

As for `O=c1[nH]c2c(c3ccccc13)Cc1cc(CN3CCC(F)(F)CC3)ccc1-2` [Methylsulfonate salt of IIIb-15, 9-[1-(4,4-Difluoropiperidino)methyl]-5,6-dihydro-5-oxo-11-H-indeno[1,2-c]isoquinoline methylsulfonate], the midpoint of the response, the EC50, lay at 55 nM. In other words, the double-digit nanomolar range. As for `O=c1[nH]c2c(c3cccc(Cl)c13)Cc1c(CNC3CCCC3)cccc1-2` [Va-1, 4-chloro-10-((cyclopentylamino)methyl)-6,11-dihydro-5H-indeno[1,2-c]isoquinolin-5-one], the EC50 was above 100 nM.

With `O=c1[nH]c2c(c3ccc(F)cc13)Cc1c(CNC3CCCC3)cccc1-2` [Va-3, 10-((cyclopentylamino)methyl)-3-fluoro-6,11-dihydro-5H-indeno[1,2-c]isoquinolin-5-one], the midpoint of the response, the EC50, lay at 9 nM. That is a single-digit nanomolar value. `O=c1[nH]c2c(c3cccc(F)c13)Cc1c(CNC3CCCC3)cccc1-2` [Va-4, 10-((cyclopentylamino)methyl)-4-fluoro-6,11-dihydro-5H-indeno[1,2-c]isoquinolin-5-one]: the EC50 came out at 4 nM. As for `O=c1[nH]c2c(c3ccc(F)cc13)Cc1c(CNC3CCOCC3)cccc1-2` [Va-5, 3-fluoro-10-((tetrahydro-2H-pyran-4-ylamino)methyl)-6,11-dihydro-5H-indeno[1,2-c]isoquinolin-5-one], the EC50 came to 5 nM. Regarding `O=c1[nH]c2c(c3c(F)cccc13)Cc1c(CNC3CCCC3)cccc1-2` [Va-7, 10-((cyclopentylamino)methyl)-1-fluoro-6,11-dihydro-5H-indeno[1,2-c]isoquinolin-5-one], a half-maximal effect (EC50) was put at 5 nM. `O=c1[nH]c2c(c3ccccc13)Cc1c(CNC3(CO)CCCC3)cc(F)cc1-2` [Va-9, 8-fluoro-10-((1-(hydroxymethyl)cyclopentylamino)methyl)-6,11-dihydro-5H-indeno[1,2-c]isoquinolin-5-one] came in with an EC50 of 3 nM. With `O=c1[nH]c2c(c3ccc(F)cc13)Cc1c(CNC3(CO)CCCC3)cc(F)cc1-2` [Va-10, 3,8-difluoro-10-((1-(hydroxymethyl)cyclopentylamino)methyl)-6,11-dihydro-5H-indeno[1,2-c]isoquinolin-5-one] the figure was 3 nM.

As a reminder, the EC50 is the concentration that produces a half-maximal response. Low readings indicate an effect from little substance, high ones a need for much substance.

(Values after patent publication US20100121049A1, “INDENOISOQUINOLINONE ANALOGS AND METHODS OF USE THEREOF” (INOTEK PHARMACEUTICALS CORPORATION, priority 2007, published 2010).)
